Results: patent US7217730B2, “Method for the use of pyranoindole derivatives to treat infection with Hepatitis C virus” (Wyeth, priority 2002, dated 2007)

Key:
[1] = target: T1, NS5B from the BK strain (genotype 1b) (Hepatitis C virus genotype 1b, UniProt P26663); test: Hepatitis C polymerase inhibition, NS5B BK strain, 33P-GTP filter assay; assay type: biochemical; details: Table 1B; NS5B BK strain; read-out: BK IC50
T1 construct: NS5B from the BK strain (genotype 1b) is expressed in E. coli as a protein in which the 21 C-terminal amino acids are replaced; made in house; host or cells: E. coli
Outline: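 Radiolabelled RNA synthesis was measured by filter capture and scintillation counting after EDTA stop. His-tagged, C-terminally truncated (Δ21) genotype 1b BK NS5B from E. coli, pre-exposed to compound for 15 min, copied a self-primed RNA template (~3 nM) with α-[33P]-GTP for 2 h at room temperature.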

[2] = target: BB7 (RNA-dependent RNA polymerase hepatitis C virus protein sequence derived from HCV replicon) (Hepatitis C virus genotype 1b, UniProt Q9WMX2); test: Hepatitis C polymerase inhibition, BB7 sequence; assay type: biochemical; details: Table 1B
Chain of BB7 (RNA-dependent RNA polymerase hepatitis C virus protein sequence derived from HCV replicon) (Q9WMX2 2420-3010): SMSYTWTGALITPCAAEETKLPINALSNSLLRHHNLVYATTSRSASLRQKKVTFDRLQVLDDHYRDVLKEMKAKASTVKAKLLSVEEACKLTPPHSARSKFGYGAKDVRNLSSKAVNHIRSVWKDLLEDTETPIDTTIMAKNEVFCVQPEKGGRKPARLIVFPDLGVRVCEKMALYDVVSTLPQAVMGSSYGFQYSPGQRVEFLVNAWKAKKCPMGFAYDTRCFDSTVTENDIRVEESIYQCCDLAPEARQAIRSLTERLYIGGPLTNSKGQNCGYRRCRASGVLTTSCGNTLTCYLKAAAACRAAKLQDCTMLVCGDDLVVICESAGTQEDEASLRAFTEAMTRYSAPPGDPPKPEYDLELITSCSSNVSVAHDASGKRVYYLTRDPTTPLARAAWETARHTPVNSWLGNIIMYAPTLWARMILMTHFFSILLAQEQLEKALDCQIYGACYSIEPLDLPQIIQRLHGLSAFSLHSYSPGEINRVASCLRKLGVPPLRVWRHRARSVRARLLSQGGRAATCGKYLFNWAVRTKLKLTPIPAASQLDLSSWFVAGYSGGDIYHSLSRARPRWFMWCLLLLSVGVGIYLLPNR

T1 sequence (P26663 2420-2989): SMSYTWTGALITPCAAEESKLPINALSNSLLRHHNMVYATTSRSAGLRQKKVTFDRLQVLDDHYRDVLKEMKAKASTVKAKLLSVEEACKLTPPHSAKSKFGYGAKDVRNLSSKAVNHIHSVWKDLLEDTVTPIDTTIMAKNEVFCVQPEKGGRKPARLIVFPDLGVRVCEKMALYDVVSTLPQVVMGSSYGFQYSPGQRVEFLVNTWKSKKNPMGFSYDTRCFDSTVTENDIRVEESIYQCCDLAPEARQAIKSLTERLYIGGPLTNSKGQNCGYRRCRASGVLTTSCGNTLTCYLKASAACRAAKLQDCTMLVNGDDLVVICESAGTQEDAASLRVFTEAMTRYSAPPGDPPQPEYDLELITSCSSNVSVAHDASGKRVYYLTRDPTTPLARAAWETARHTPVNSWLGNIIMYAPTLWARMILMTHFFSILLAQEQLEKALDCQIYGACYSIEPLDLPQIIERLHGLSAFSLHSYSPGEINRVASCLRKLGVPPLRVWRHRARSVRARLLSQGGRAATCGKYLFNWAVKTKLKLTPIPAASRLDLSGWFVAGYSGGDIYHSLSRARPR

| Structure (SMILES) | IC50 [1] [µM] | IC50 [2] [µM] |
| --- | --- | --- |
| O=C(O)CC1(C2CC2)OCCc2c1[nH]c1c(Cl)ccc(Cl)c21 (centres unmarked) [Example 252, (5,8-dichloro-1-cyclopropyl-1,3,4,9-tetrahydropyrano[3,4-b]indol-1-yl)acetic acid] | 7.3 | 19 |
| O=C(O)CC1(C2CCC2)OCCc2c1[nH]c1c(Cl)ccc(Cl)c21 (centres unmarked) [Example 253, (5,8-dichloro-1-cyclobutyl-1,3,4,9-tetrahydropyrano[3,4-b]indol-1-yl)acetic acid] | 0.35 | 0.7 |
| O=C(O)CC1(C2CCCC2)OCCc2c1[nH]c1c(Cl)ccc(Cl)c21 (centres unmarked) [Example 254, (5,8-dichloro-1-cyclopentyl-1,3,4,9-tetrahydropyrano[3,4-b]indol-1-yl)acetic acid] | 3.3 | 5.8 |
| O=C(O)CC1(C2CCCCC2)OCCc2c1[nH]c1c(Cl)ccc(Cl)c21 (centres unmarked) [Example 255, (5,8-dichloro-1-cyclohexyl-1,3,4,9-tetrahydropyrano[3,4-b]indol-1-yl)acetic acid] | > 30 | 15 |
| CCC(C)C1(CC(=O)O)OCCc2c1[nH]c1c(Cl)ccc(Cl)c21 (centres unmarked) [Example 256, [5,8-dichloro-1-(1-methylpropyl)-1,3,4,9-tetrahydropyrano[3,4-b]indol-1-yl]acetic acid] | 0.15 | 0.34 |
| O=C(O)CC1(CC2CC2)OCCc2c1[nH]c1c(Cl)ccc(Cl)c21 (centres unmarked) [Example 257, (5,8-dichloro-1-cyclopropylmethyl-1,3,4,9-tetrahydropyrano[3,4-b]indol-1-yl)acetic acid] | 1.9 | 2.9 |
| O=C(O)CC1(CC2CCCC2)OCCc2c1[nH]c1c(Cl)ccc(Cl)c21 (centres unmarked) [Example 258, (5,8-dichloro-1-cyclopentylmethyl-1,3,4,9-tetrahydropyrano[3,4-b]indol-1-yl)acetic acid] | 9.4 | 14 |
| Cc1ccc(Cl)c2c3c([nH]c12)C(CC(=O)O)(C1CCC1)OCC3 (centres unmarked) [Example 259, (5-chloro-1-cyclobutyl-8-methyl-1,3,4,9-tetrahydropyrano[3,4-b]indol-1-yl)acetic acid] | 0.5 | 1.6 |
| CCCC1(CC(=O)O)OCCc2c1[nH]c1c(C)ccc(Cl)c21 (centres unmarked) [Example 260, (5-chloro-8-methyl-1-propyl-1,3,4,9-tetrahydropyrano[3,4-b]indol-1-yl)acetic acid] | 0.4 | 1.2 |
| CCCC1(CC(=O)O)OCCc2c1[nH]c1c(Cl)ccc(C)c21 (centres unmarked) [Example 262, (8-chloro-5-methyl-1-propyl-1,3,4,9-tetrahydropyrano[3,4-b]indol-1-yl)acetic acid] | 2.7 | 8.3 |
| O=C(O)CC1(CCC(F)(F)F)OCCc2c1[nH]c1c(Cl)ccc(C(F)(F)F)c21 (centres unmarked) [Example 263, [8-chloro-5-trifluoromethyl-1-(3,3,3-trifluoropropyl)-1,3,4,9-tetrahydropyrano[3,4-b]indol-1-yl]acetic acid] | 1.3 | 3.2 |
| COCCC1(CC(=O)O)OCCc2c1[nH]c1c(Cl)ccc(C(F)(F)F)c21 (centres unmarked) [Example 265, [8-chloro-1-(2-methoxyethyl)-5-trifluoromethyl-1,3,4,9-tetrahydropyrano[3,4-b]indol-1-yl]acetic acid] | 20 | 22 |
| CCOCC1(CC(=O)O)OCCc2c1[nH]c1c(Cl)ccc(C(F)(F)F)c21 (centres unmarked) [Example 266, (8-chloro-1-ethoxymethyl-5-trifluoromethyl-1,3,4,9-tetrahydropyrano[3,4-b]indol-1-yl)acetic acid] | 14 | 17 |
| O=C(O)CC1(C2CCC2)OCCc2c1[nH]c1c(Cl)ccc(C(F)(F)F)c21 (centres unmarked) [Example 267, (8-chloro-1-cyclobutyl-5-trifluoromethyl-1,3,4,9-tetrahydropyrano[3,4-b]indol-1-yl)acetic acid] | 0.66 | 2.3 |
| CCCC1(CC(=O)O)OCCc2c1[nH]c1c(F)ccc(C(F)(F)F)c21 (centres unmarked) [Example 268, (8-fluoro-1-propyl-5-trifluoromethyl-1,3,4,9-tetrahydropyrano[3,4-b]indol-1-yl)acetic acid] | 4.6 | 6.1 |
| O=C(O)CC1(C2CCC2)OCCc2c1[nH]c1c(F)ccc(C(F)(F)F)c21 (centres unmarked) [Example 269, (1-cyclobutyl-8-fluoro-5-trifluoromethyl-1,3,4,9-tetrahydropyrano[3,4-b]indol-1-yl)acetic acid] | 9.4 | 9.4 |
| O=C(O)CC1(C2CCCC2)OCCc2c1[nH]c1c(F)ccc(C(F)(F)F)c21 (centres unmarked) [Example 270, (1-cyclopentyl-8-fluoro-5-trifluoromethyl-1,3,4,9-tetrahydropyrano[3,4-b]indol-1-yl)acetic acid] | 20 | 17 |

| Structure (SMILES) | IC50 [1] [µM] | IC50 [2] [µM] |
| --- | --- | --- |
| CCCC1(CC(=O)O)OCCc2c1[nH]c1c(C(F)(F)F)ccc(C(F)(F)F)c21 (centres unmarked) [Example 271, [5,8-bis(trifluoromethyl)-1-propyl-1,3,4,9-tetrahydropyrano[3,4-b]indol-1-yl]acetic acid] | 2.7 | 3.5 |
| CCCC1(CC(=O)O)OCCc2c1[nH]c1c(C)ccc(C(F)(F)F)c21 (centres unmarked) [Example 272, (8-methyl-1-propyl-5-trifluoromethyl-1,3,4,9-tetrahydropyrano[3,4-b]indol-1-yl)acetic acid] | 0.5 | 1.5 |
| CCCCC1(CC(=O)O)OCCc2c1[nH]c1c(C)ccc(C(F)(F)F)c21 (centres unmarked) [Example 273, (8-methyl-1-butyl-5-trifluoromethyl-1,3,4,9-tetrahydropyrano[3,4-b]indol-1-yl)acetic acid] | 1.4 | 6.5 |
| Cc1ccc(C(F)(F)F)c2c3c([nH]c12)C(CC(=O)O)(C1CC1)OCC3 (centres unmarked) [Example 274, (1-cyclopropyl-8-methyl-5-trifluoromethyl-1,3,4,9-tetrahydropyrano[3,4-b]indol-1-yl)acetic acid] | 9.3 | > 26 |
| Cc1ccc(C(F)(F)F)c2c3c([nH]c12)C(CC(=O)O)(C1CCC1)OCC3 (centres unmarked) [Example 275, (1-cyclobutyl-8-methyl-5-trifluoromethyl-1,3,4,9-tetrahydropyrano[3,4-b]indol-1-yl)acetic acid] | 1.2 | 3.5 |
| CCCC1(CC(=O)O)OCCc2c1[nH]c1c(C#N)ccc(C(F)(F)F)c21 (centres unmarked) [Example 276, (8-cyano-1-propyl-5-trifluoromethyl-1,3,4,9-tetrahydropyrano[3,4-b]indol-1-yl)acetic acid] | 1.3 | 1.7 |
| CCC(C)C1(CC(=O)O)OCCc2c1[nH]c1c(C(N)=O)ccc(C(F)(F)F)c21 [Example 278, (1R*,10S)-[8-aminocarbonyl-1-(1-methylpropyl)-5-trifluoromethyl-1,3,4,9-tetrahydropyrano[3,4-b]indol-1-yl]acetic acid] | 15 | 23 |
| Cc1ccc(C#N)c2c3c([nH]c12)C(CCC(F)(F)F)(CC(=O)O)OCC3 (centres unmarked) [Example 280, [5-cyano-8-methyl-1-(3,3,3-trifluoropropyl)-1,3,4,9-tetrahydropyrano[3,4-b]indol-1-yl]acetic acid] | 0.8 | 2 |
| COCC1(CC(=O)O)OCCc2c1[nH]c1c(C)ccc(C#N)c21 (centres unmarked) [Example 281, (5-cyano-1-methoxymethyl-8-methyl-1,3,4,9-tetrahydropyrano[3,4-b]indol-1-yl)acetic acid] | > 30 | > 30 |
| CSCC1(CC(=O)O)OCCc2c1[nH]c1c(C)ccc(C#N)c21 (centres unmarked) [Example 282, (5-cyano-1-methylthiomethyl-8-methyl-1,3,4,9-tetrahydropyrano[3,4-b]indol-1-yl)acetic acid] | 13 | 22 |
| Cc1ccc(C#N)c2c3c([nH]c12)C(CC(=O)O)(C1CC1)OCC3 (centres unmarked) [Example 283, (5-cyano-1-cyclopropyl-8-methyl-1,3,4,9-tetrahydropyrano[3,4-b]indol-1-yl)acetic acid] | 15 | > 27 |
| Cc1ccc(C#N)c2c3c([nH]c12)C(CC(=O)O)(C1CCC1)OCC3 (centres unmarked) [Example 284, (5-cyano-1-cyclobutyl-8-methyl-1,3,4,9-tetrahydropyrano[3,4-b]indol-1-yl)acetic acid] | 1 | 2.3 |
| Cc1ccc(C#N)c2c3c([nH]c12)[C@@](CC(=O)O)(C1CCC1)OCC3 [Example 285, (1R)-(5-cyano-1-cyclobutyl-8-methyl-1,3,4,9-tetrahydropyrano[3,4-b]indol-1-yl)acetic acid] | 0.4 | 1.1 |
| Cc1ccc(C#N)c2c3c([nH]c12)[C@](CC(=O)O)(C1CCC1)OCC3 [Example 286, (1S)-(5-cyano-1-cyclobutyl-8-methyl-1,3,4,9-tetrahydropyrano[3,4-b]indol-1-yl)acetic acid] | > 30 | > 30 |
| Cc1ccc(C#N)c2c3c([nH]c12)C(CC(=O)O)(C1CCCC1)OCC3 (centres unmarked) [Example 287, (5-cyano-1-cyclopentyl-8-methyl-1,3,4,9-tetrahydropyrano[3,4-b]indol-1-yl)acetic acid] | 5.1 | 6.5 |
| Cc1ccc(C#N)c2c3c([nH]c12)C(CC(=O)O)(CC1CCCC1)OCC3 (centres unmarked) [Example 288, (5-cyano-1-cyclopentylmethyl-8-methyl-1,3,4,9-tetrahydropyrano[3,4-b]indol-1-yl)acetic acid] | 22 | 18 |
| CC[C@H](C)[C@@]1(CC(=O)O)OCCc2c1[nH]c1c(C)ccc(C#N)c21 [Example 292, (1R,10S)-[5-cyano-8-methyl-1-(1-methylpropyl)-1,3,4,9-tetrahydropyrano[3,4-b]indol-1-yl]acetic acid] | 0.13 | 0.26 |
